The values that follow come from patent EP4371976B1, “IONIZABLE LIPIDS AND LIPID NANOPARTICLES CONTAINING THEREOF” (Certest Biotec, S.L., priority 2022, dated 2024).

One data set concerns mice. Kind of data set: LNP stability over time: in vivo transfection (total flux) in mice, fresh versus stored at 4 °C. Particulars: LNP 50:10:38.5:1.5. The method, then:
Two LNPs comprising: ionizable lipid (Formula I):non-cationic lipid:sterol: PEG-modified lipid
in the ratios 50:10:38.5:1.5 were tested in order to determine their stability. Formulation A comprising VC-LC-0163 as the ionizable lipid was administered to mice and transfection efficiency measured with a fresh preparation in a first experiment, and with a preparation that had been stored for 83 days at T = 4 °C.
Formulation B comprising VC-LC-0263 as the ionizable lipid was administered to mice and transfection efficiency measured with a fresh preparation in a first experiment, and with a preparation that had been stored for 61 days at T = 4 °C.

A short description of data set [1]: RNA encapsulation efficiency of LNPs by Quant-IT Ribogreen. Particulars: LNPs with luciferase mRNA; ionizable lipid:non-cationic lipid:sterol:PEG-modified lipid 50:10:38.5:1.5; percentage of RNA entrapped in the LNP. The format is physicochemical. The essentials: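 Ribogreen dye assay per manufacturer quantified encapsulated mRNA. Particles were made by adding mRNA in water to the ethanol phase, then 1:1 Tris dilution and overnight dialysis into Tris/15% sucrose; final mRNA set to 100 µg/ml.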

A short description of data set [2]: Size distribution, polydispersity and Z-potential of LNPs by dynamic light scattering (Malvern Zetasizer). The format is physicochemical. Particulars: LNPs, standard formulation 50:10:38.5:1.5; DLS. On the procedure:
The LNP solution was then adjusted to a final concentration of mRNA of 100 µg/ml. Size distribution, polydispersity and Z-potential were measured by dynamic light scattering (DLS) using Malvern Zetasizer Advance Lab Blue Label. RNA encapsulation was assessed by Quant-IT® Ribogreen following the manufacturer's instructions.

As to `CCCCCCCCCCCCCCCCOC(=O)CCSCCC(NC(=O)C(CCCCCC)CCCCCCCC)C(=O)NCCCn1ccnc1` (stereo not drawn) [VC-LC-0263], the “Total flux (p·s^-1)” value in the data set with mice (t = 0, fresh preparation) worked out at 1.19E+08 p·s^-1. Further, in the data set on mice (t = 61 days, stored at 4 °C), the “Total flux (p·s^-1)” value is on record as 5.07E+07 p·s^-1. The “Encaps. efficiency (%)” value in data set [1] is listed as 60.70%. In data set [2], the P.D.I. worked out at 0.13, the “Particle size/ Ø (nm)” value is 188.6 nm and the “Z Potential (± D.E.) [mV]” value was -17.30 mV.
